Experimental data: ChEMBL document CHEMBL1201862, “PubChem BioAssay data set” (2004)
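Five concentrations, 48 hours, 96-well plates. Here, GI50 denotes the concentration required for 50% inhibition of growth.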 Calls of active or inactive are those of the source. Rule as the data show it: active = GI50 up to about 1.1 µM and inactive = higher.

Key:
Test in all cases: DTP human tumour cell line panel, 48 h
HOP-92 = test system: HOP-92
RPMI-8226 = test system: RPMI-8226
SK-MEL-5 = test system: SK-MEL-5
RXF 393 = test system: RXF 393
SN12C = test system: SN12C
OVCAR-8 = test system: OVCAR-8
MOLT-4 = test system: MOLT-4
EKVX = test system: EKVX
A549 = test system: A549
SK-MEL-2 = test system: SK-MEL-2
UO-31 = test system: UO-31
SF-268 = test system: SF-268
SF-295 = test system: SF-295
CAKI-1 = test system: CAKI-1
SNB-75 = test system: SNB-75
M14 = test system: M14
Hs-578T = test system: Hs-578T
K562 = test system: K562
PC-3 = test system: PC-3
NCI-H23 = test system: NCI-H23
COLO 205 = test system: COLO 205
SR = test system: SR
SW-620 = test system: SW-620
LOX IMVI = test system: LOX IMVI
TK-10 = test system: TK-10
HOP-62 = test system: HOP-62
IGROV-1 = test system: IGROV-1
NCI-H460 = test system: NCI-H460
BT-549 = test system: BT-549
CCRF-CEM = test system: CCRF-CEM
UACC-257 = test system: UACC-257
DU-145 = test system: DU-145
HCT-15 = test system: HCT-15
UACC-62 = test system: UACC-62
T47D = test system: T47D
SF-539 = test system: SF-539
OVCAR-5 = test system: OVCAR-5
NCI/ADR-RES = test system: NCI/ADR-RES
KM12 = test system: KM12
SNB-19 = test system: SNB-19
SK-MEL-28 = test system: SK-MEL-28
OVCAR-3 = test system: OVCAR-3
SK-OV-3 = test system: SK-OV-3
MDA-MB-435 = test system: MDA-MB-435
OVCAR-4 = test system: OVCAR-4
MDA-N = test system: MDA-N
NCI-H226 = test system: NCI-H226
NCI-H522 = test system: NCI-H522
Malme-3M = test system: Malme-3M
HCT-116 = test system: HCT-116
HCC 2998 = test system: HCC 2998
A498 = test system: A498
ACHN = test system: ACHN
HT-29 = test system: HT-29
MDA-MB-231 = test system: MDA-MB-231
HL-60 = test system: HL-60
MCF7 = test system: MCF7
U-251 = test system: U-251
786-0 = test system: 786-0

C[N+](C)(C)c1ncnc2c1ncn2C1CC(O)C(CO)O1 (stereo not given)
GI50 (HOP-92): > 100 µM (inactive) | GI50 (RPMI-8226): > 100 µM (inactive) | GI50 (SK-MEL-5): > 100 µM (inactive) | GI50 (RXF 393): > 100 µM (inactive) | GI50 (SN12C): > 100 µM (inactive) | GI50 (OVCAR-8): > 100 µM (inactive) | GI50 (MOLT-4): > 100 µM (inactive) | GI50 (EKVX): > 100 µM (inactive) | GI50 (A549): > 100 µM (inactive) | GI50 (SK-MEL-2): > 100 µM (inactive) | GI50 (UO-31): > 100 µM (inactive) | GI50 (SF-268): > 100 µM (inactive) | GI50 (SF-295): > 100 µM (inactive) | GI50 (CAKI-1): > 100 µM (inactive) | GI50 (SNB-75): > 100 µM (inactive) | GI50 (M14): > 100 µM (inactive) | GI50 (Hs-578T): > 100 µM (inactive) | GI50 (K562): > 100 µM (inactive) | GI50 (PC-3): > 100 µM (inactive) | GI50 (NCI-H23): > 100 µM (inactive) | GI50 (COLO 205): > 100 µM (inactive) | GI50 (SR): > 100 µM (inactive) | GI50 (SW-620): > 100 µM (inactive) | GI50 (LOX IMVI): > 100 µM (inactive) | GI50 (TK-10): > 100 µM (inactive) | GI50 (HOP-62): > 100 µM (inactive) | GI50 (IGROV-1): > 100 µM (inactive) | GI50 (NCI-H460): > 100 µM (inactive) | GI50 (BT-549): > 100 µM (inactive) | GI50 (CCRF-CEM): > 100 µM (inactive) | GI50 (UACC-257): > 100 µM (inactive) | GI50 (DU-145): > 100 µM (inactive) | GI50 (HCT-15): > 100 µM | GI50 (UACC-62): > 100 µM (inactive) | GI50 (T47D): > 100 µM (inactive) | GI50 (SF-539): > 100 µM (inactive) | GI50 (OVCAR-5): > 100 µM (inactive) | GI50 (NCI/ADR-RES): > 100 µM (inactive) | GI50 (KM12): > 100 µM (inactive) | GI50 (SNB-19): > 100 µM (inactive) | GI50 (SK-MEL-28): > 100 µM (inactive) | GI50 (OVCAR-3): > 100 µM (inactive) | GI50 (SK-OV-3): > 100 µM (inactive) | GI50 (MDA-MB-435): > 100 µM (inactive) | GI50 (OVCAR-4): > 100 µM (inactive) | GI50 (MDA-N): > 100 µM (inactive) | GI50 (NCI-H226): > 100 µM (inactive) | GI50 (NCI-H522): > 100 µM (inactive) | GI50 (Malme-3M): > 100 µM (inactive) | GI50 (HCT-116): > 100 µM (inactive) | GI50 (HCC 2998): > 100 µM (inactive) | GI50 (A498): > 100 µM (inactive) | GI50 (ACHN): > 100 µM (inactive) | GI50 (HT-29): > 100 µM (inactive) | GI50 (MDA-MB-231): > 100 µM (inactive) | GI50 (HL-60): > 100 µM (inactive) | GI50 (MCF7): > 100 µM (inactive) | GI50 (U-251): > 100 µM (inactive) | GI50 (786-0): > 100 µM (inactive)

Cc1cccc(-c2nc3ccc([N+](=O)[O-])cc3c(=O)o2)c1
GI50 (HOP-92): 16 µM (inactive) | GI50 (RPMI-8226): 45.6 µM (inactive) | GI50 (SK-MEL-5): > 100 µM (inactive) | GI50 (RXF 393): > 100 µM (inactive) | GI50 (SN12C): 72.3 µM (inactive) | GI50 (OVCAR-8): 46.7 µM (inactive) | GI50 (MOLT-4): 27.6 µM (inactive) | GI50 (A549): 73.3 µM (inactive) | GI50 (SK-MEL-2): 91.2 µM (inactive) | GI50 (UO-31): 43.8 µM (inactive) | GI50 (SF-268): 60.3 µM (inactive) | GI50 (SF-295): 36.1 µM (inactive) | GI50 (CAKI-1): > 100 µM (inactive) | GI50 (SNB-75): > 100 µM (inactive) | GI50 (Hs-578T): 22 µM (inactive) | GI50 (K562): 35.3 µM (inactive) | GI50 (PC-3): 58.5 µM (inactive) | GI50 (NCI-H23): 72.8 µM (inactive) | GI50 (COLO 205): > 100 µM (inactive) | GI50 (SR): 28.8 µM (inactive) | GI50 (SW-620): 73.3 µM (inactive) | GI50 (LOX IMVI): 26.2 µM (inactive) | GI50 (TK-10): 59.3 µM (inactive) | GI50 (HOP-62): 46.1 µM (inactive) | GI50 (IGROV-1): > 100 µM (inactive) | GI50 (NCI-H460): 51.8 µM (inactive) | GI50 (BT-549): 51.4 µM (inactive) | GI50 (CCRF-CEM): 27.8 µM (inactive) | GI50 (UACC-257): 64.3 µM (inactive) | GI50 (DU-145): 59.8 µM (inactive) | GI50 (HCT-15): 74.3 µM | GI50 (UACC-62): 21.1 µM (inactive) | GI50 (T47D): 47.5 µM (inactive) | GI50 (SF-539): 27.9 µM (inactive) | GI50 (OVCAR-5): > 100 µM (inactive) | GI50 (NCI/ADR-RES): 26.1 µM (inactive) | GI50 (KM12): 90.6 µM (inactive) | GI50 (SK-MEL-28): > 100 µM (inactive) | GI50 (OVCAR-3): 47.9 µM (inactive) | GI50 (SK-OV-3): > 100 µM (inactive) | GI50 (MDA-MB-435): 89.7 µM (inactive) | GI50 (OVCAR-4): 68.9 µM (inactive) | GI50 (MDA-N): > 100 µM (inactive) | GI50 (NCI-H226): 71.6 µM (inactive) | GI50 (NCI-H522): 32.3 µM (inactive) | GI50 (Malme-3M): 51.4 µM (inactive) | GI50 (HCT-116): 42.8 µM (inactive) | GI50 (HCC 2998): > 100 µM (inactive) | GI50 (A498): 28.6 µM (inactive) | GI50 (ACHN): 83.8 µM (inactive) | GI50 (HT-29): 62.4 µM (inactive) | GI50 (MDA-MB-231): > 100 µM (inactive) | GI50 (HL-60): 59.7 µM (inactive) | GI50 (MCF7): 62.5 µM (inactive) | GI50 (U-251): 44.4 µM (inactive) | GI50 (786-0): 48.8 µM (inactive)

Oc1cc(O)c2c(c1)O[C@H](c1cc(O)c(O)c(O)c1)[C@H](O)C2 [EPIGALLOCATECHIN]
GI50 (HOP-92): 20.7 µM (inactive) | GI50 (RPMI-8226): 13.8 µM (inactive) | GI50 (SK-MEL-5): 16.9 µM (inactive) | GI50 (RXF 393): 15.2 µM (inactive) | GI50 (SN12C): 20.5 µM (inactive) | GI50 (OVCAR-8): 16.1 µM (inactive) | GI50 (MOLT-4): 14.6 µM (inactive) | GI50 (EKVX): > 10 µM (inactive) | GI50 (A549): 27.5 µM (inactive) | GI50 (SK-MEL-2): 7.96 µM (inactive) | GI50 (UO-31): 18.5 µM (inactive) | GI50 (SF-268): 25.4 µM (inactive) | GI50 (SF-295): 30.5 µM (inactive) | GI50 (CAKI-1): 33.1 µM (inactive) | GI50 (SNB-75): 31.6 µM (inactive) | GI50 (M14): 23.6 µM (inactive) | GI50 (Hs-578T): 52 µM (inactive) | GI50 (K562): 20.4 µM (inactive) | GI50 (PC-3): 16.5 µM (inactive) | GI50 (NCI-H23): 23.1 µM (inactive) | GI50 (COLO 205): 18.2 µM (inactive) | GI50 (SR): 14.4 µM (inactive) | GI50 (SW-620): 17.5 µM (inactive) | GI50 (LOX IMVI): 27.9 µM (inactive) | GI50 (HOP-62): 19.7 µM (inactive) | GI50 (IGROV-1): 20.4 µM (inactive) | GI50 (NCI-H460): 18.3 µM (inactive) | GI50 (BT-549): 19.2 µM (inactive) | GI50 (CCRF-CEM): 17.9 µM (inactive) | GI50 (UACC-257): > 100 µM (inactive) | GI50 (DU-145): 63.7 µM (inactive) | GI50 (HCT-15): 34.8 µM | GI50 (T47D): 37.2 µM (inactive) | GI50 (SF-539): 20.3 µM (inactive) | GI50 (OVCAR-5): 15.6 µM (inactive) | GI50 (NCI/ADR-RES): 22.6 µM (inactive) | GI50 (SNB-19): > 100 µM (inactive) | GI50 (SK-MEL-28): 36.6 µM (inactive) | GI50 (OVCAR-3): 47 µM (inactive) | GI50 (SK-OV-3): 18.6 µM (inactive) | GI50 (MDA-MB-435): 6.9 µM (inactive) | GI50 (OVCAR-4): 14.7 µM (inactive) | GI50 (MDA-N): 18.8 µM (inactive) | GI50 (NCI-H226): 26.4 µM (inactive) | GI50 (NCI-H522): 17.7 µM (inactive) | GI50 (Malme-3M): > 100 µM (inactive) | GI50 (HCT-116): 19.2 µM (inactive) | GI50 (HCC 2998): > 10 µM (inactive) | GI50 (A498): > 100 µM (inactive) | GI50 (ACHN): 21.2 µM (inactive) | GI50 (MDA-MB-231): 18.7 µM (inactive) | GI50 (HL-60): 19.5 µM (inactive) | GI50 (MCF7): 20.8 µM (inactive) | GI50 (U-251): 16.4 µM (inactive) | GI50 (786-0): 18.2 µM (inactive)
